The values that follow come from US20170304369A1, “METHODS OF DIFFERENTIATING STEM CELLS INTO LIVER CELL LINEAGES” (Agency for Science, Technology and Research, priority 2014, published 2017).

One series relates to adult human hepatocytes. Description: Adult human primary hepatocytes in vitro culture, liver gene expression after 2 days. Type of series: cell-based. The source says: RNA was extracted using Zymo RNA extraction kit. RT-quantitative PCR was used to quantify gene expression. […]
The signals that promote hepatocyte specification and/or maturation were considered to also ameliorate such loss of liver maturity and gene expression during in vitro culture. Thus, the signaling pathways that appear to be dysregulated were investigated including Notch, TGFb, Wnt, as well as other major signaling pathways including estrogen, BMP, FGF, PKA/cAMP pathways, in order to determine the effects on liver genes after 2 days.

The subject of another series is PFG cells. Nature of the series: Liver bud (LB) specification from posterior foregut, days 4-6, gene expression. Type of series: cell-based, human. On the procedure: (§1) mTeSR1-grown hPSCs were cultured and differentiated as follows: • a) hPSCs cells were seeded at 1:12 as small clumps using Accutase (Millipore, Cat#SCR005) and Geltrex (Lifetech, Cat#A1413302). • b) Anterior Primitive Streak (day 1) was specified using Activin A (100 ng/ml), CHIR99021 (3 μM), PI-103 (50 nM) and Fgf2 (10 ng/ml) in serumless CDM2 basal medium for 24 hr. • c) Activin A (100 ng/ml) and DM3189 (250 nM) and PI-103 (50 nM) were added in the same basal medium for 24 hr to induce Definitive Endoderm (DE) (day 2). • d) DE was then patterned into PFG by using A83-01 (1 μM), RA (2 μM), BMP4 (30 ng/ml) and Fgf2 (10 ng/ml) in CDM KOSR basal media for another 24 hrs. • e) PFG was further differentiated to LB progenitors using Activin A (100 ng/ml), 8-bromo-CAMP (1 mM) and BMP4 (10 ng/ml) in CDM KOSR basal media for 3 days (day 4 to 6). • f) LB progenitors were treated with BMP4 (10 ng/ml), Oncostatin M (10 ng/ml), Dexamethasone ([…]), DAPT, C59 (1 μM) or RO4919097 (2 μM), forskolin ([…]), human recombinant insulin (10 μg/ml), ascorbic acid-2 phosphate (200 μg/ml), L-gluthathione ([…]) and amino acid concentrate and in IMDM/F12 media for the next 6 days (day 7 to 12) to induce hepatic progenitors. • g) Hepatic progenitors were treated with Dexamethasone (10 μM), RO4929097 (2 μM) or DAPT (10 μM), Forskolin (10 μM), human recombinant insulin (10 μg/ml), ascorbic acid-2 phosphate (200 μg/ml) in IMDM/F12 media for 6 days (day 13 to 18) to generate hepatocyte-like cells. Intra-Splenic Transplantation into FRG^−/− Mice
(§2) RNA was extracted using Zymo RNA extraction kit. RT-quantitative PCR was used to quantify gene expression. Primer sequences were designed by NCBI Primer Tool and primer specificity and linearity was tested before usage for gene expression analyses.
The signaling pathways, including Retinoic, Nodal/Activin, Bmp, PKA, FGF and Wnt signaling, were explored to determine if they could directly regulate LB specification.

A further series concerns hPSC-derived LB cells. Description: Hepatic progenitor specification from hPSC-derived LB cells (days 7-12), liver gene expression. The note with it: for ALB expression: added to hPSC-derived LB cells; for SOX9 expression: Notch inhibition; for subsequent expression of liver genes: brief treatment of LB cells for 2 days. On the procedure:
as §1, §2
To identify the signals that regulate the progression of the LB progenitors from an ALB- to a more differentiated ALB+ state, multiple signaling pathways were systematically screened for their effects on ALB expression (including FGF, WNT, Notch, HGF, cAMP/PKA, TGFβ, and BMP).

Setting [1] is: addition at the LB specification stage.

For `Cc1cccc(-c2nn(C(=S)Nc3ccccc3)cc2-c2ccnc3ccccc23)n1` [A83-01, 3-(6-Methyl-2-pyridinyl)-N-phenyl-4-(4-quinolinyl)-1H-pyrazole-1-carbothioamide], the “expression of CYP1A1, CYP1A2, CYP2C19, CYP2C9, CYP3A4, CYP3A5, CYP3A7 and CYP7A1” value with adult human hepatocytes (TGFβ inhibition) was “increased”. Moreover, in the series with PFG cells (treatment during LB specification, then hepatic specification medium), the “subsequent expression of ALB” value is reported as “reduces”. `O=C1O[C@H]([C@@H](O)CO)C(O)=C1OP(=O)(O)O` [AA2P, L-ascorbic acid 2-phosphate]: in the series with hPSC-derived LB cells, the “expression of PAH, HGD, HPD, TAT, MAI, FAH, CYP3A4, ALB and CPS1” value is given as “enhancement”. Further, in the series on hPSC-derived LB cells (days 7 to 12 and days 13 to 16), the liver maturation entry was “significantly promoted”. As to `c1ccc2c(-c3cnn4cc(-c5ccc(N6CCNCC6)cc5)cnc34)ccnc2c1` [BM3189], the ALB expression entry with hPSC-derived LB cells is given as “decreased”.

With `C[C@H](NC(=O)Cc1cc(F)cc(F)c1)C(=O)NC(C(=O)OC(C)(C)C)c1ccccc1` (stereo partly drawn) [DAPT], in the series on adult human hepatocytes, the “expression of the majority of cytochrome enzymes (CYP1A1, CYP1A2, CYP2C19, CYP2C9, CYP2D6, CYP2E1, CYP3A4, CYP3A5, CYP3A7, CYP7A1)” value is listed as “upregulated”. In the series on hPSC-derived LB cells, the SOX9 expression entry was “reducing” and the ALB expression entry is “enhance”. On to `C=C[C@@]1(C)CC(=O)[C@]2(O)[C@@]3(C)[C@@H](O)CCC(C)(C)[C@@H]3[C@H](O)[C@H](OC(C)=O)[C@@]2(C)O1` [Forskolin], for which the “expression of functional liver enzymes such as FAH, PAH, HGD, HPD, TAT, CPS1, CYP3A4” value with hPSC-derived LB cells is listed as “enhances”. For `CC(=O)Nc1cccc(-n2c(=O)n(C3CC3)c(=O)c3c(Nc4ccc(I)cc4F)n(C)c(=O)c(C)c32)c1` [GSK1120212], the “subsequent expression of liver genes” value in the series with hPSC-derived LB cells was “higher”.

As for `CCN(CC)CCCCNc1ncc2cc(-c3cc(OC)cc(OC)c3)c(NC(=O)NC(C)(C)C)nc2n1` [PD173074, N-[2-[[4-(Diethylamino)butyl]amino]-6-(3,5-dimethoxyphenyl)pyrido[2,3-d]pyrimidin-7-yl]-N′-(1,1-dimethylethyl)urea], in the series with hPSC-derived LB cells, the “subsequent expression of liver genes” value is “higher”. On to `O=C(NOC[C@H](O)CO)c1ccc(F)c(F)c1Nc1ccc(I)cc1F` [PD0325901, N-[(2R)-2,3-Dihydroxypropoxy]-3,4-difluoro-2-[(2-fluoro-4-iodophenyl)amino]-benzamide], for which the “LB gene expression (HNF1A, HNF6, PROX1, TBX3, HNF4A)” value in the series on PFG cells (inhibition of FGF/MAPK signaling) was “reduced”. `CC(C)(C(=O)NCC(F)(F)C(F)(F)F)C(=O)N[C@@H]1C(=O)Nc2ccccc2-c2ccccc21` [R04929097, Propanediamide, N1-[(7S)-6,7-dihydro-6-oxo-5H-dibenz[b,d]azepin-7-yl]-2,2-dimethyl-N3-(2,2,3,3,3-pentafluoropropyl)-]: the “expression of the majority of cytochrome enzymes (CYP1A1, CYP1A2, CYP2C19, CYP2C9, CYP2D6, CYP2E1, CYP3A4, CYP3A5, CYP3A7, CYP7A1)” value in the series with adult human hepatocytes was “upregulated”. In the series with hPSC-derived LB cells, the SOX9 expression entry is listed as “reducing” and the ALB expression result is listed as “enhance”. For `Nc1ncnc2c1ncn2[C@@H]1O[C@@H]2CO[P@@](O)(=S)O[C@H]2[C@H]1O` [RpCAMP], the p450 cytochrome expression result in the series with adult human hepatocytes is listed as “promoted”.

For the molecule `C[N+](C)(C)CCO.[Cl-]` [choline chloride], the “expression of ALB, FAH, PAH, TAT, CYP3A4, CYP3A7, AAT, THR, FBA, FBB, FBG and TBX3” value in the series with hPSC-derived LB cells (higher levels of phospholipid precursor) was “increases”. For the molecule `Nc1ncnc2c1ncn2[C@@H]1O[C@@H]2COP(O)(=S)O[C@H]2[C@H]1O` (stereo partly drawn) [spCAMP], in the series with adult human hepatocytes, the periportal gene expression result is on record as “promote”; the “perivenous gene expression (e.g. members of the CYP1, CYP2 and CYP3 families)” value is recorded as “reducing”.

As to HGF: Hepatocyte growth factor, the ALB expression entry in the series with hPSC-derived LB cells was “promotes”. Take Wnt3A: the “perivenous xenobiotic gene expression (e.g. CYP3A4, CYP3A5 and CYP3A7)” value in the series on adult human hepatocytes is listed as “increased”. In addition, in the series on PFG cells (setting [1]), the LB gene expression result is listed as “higher” and the expansion entry is “promotes”.

B1: OSM: Oncostatin M (protein, UniProt P13725 26-221, looked up)
Oncostatin-M: AAIGSCSKEYRVLLGQLQKQTDLMQDTSRLLDPYIRIQGLDVPKLREHCRERPGAFPSEETLRGLGRRGFLQTLNATLGCVLHRLADLEQRLPKAQDLERSGLNIEDLEKLQMARPNILGLRNNIYCMAQLLDNSDTAEPTKAGRGASQPPTPTPASDAFQRKLEGCRFLHGYHRFMHSVGRVFSKWGESPNRSRR
B1: in the series with hPSC-derived LB cells, the ALB expression result was “promoted”.
